The target of assay [1] is Casein kinase I isoform delta (Homo sapiens, UniProt P48730). To be noted: at 10 µM.
For assay [2], the target named is Vascular endothelial growth factor receptor 2 (Homo sapiens, UniProt P35968). Briefly: Selectivity interaction (KinomeScan (DiscoverX)) EUB0000699a KDR. To be noted: at 10 µM.
For assay [3], the target named is Tyrosine-protein kinase SYK (Homo sapiens, UniProt P43405). Briefly: Selectivity interaction (Millipore kinase profiler) EUB0000124b SYK. The settings on record: at 10 µM.
In assay [4] the target is Myosin light chain kinase 2, skeletal/cardiac muscle (Homo sapiens) (UniProt Q9H1R3). Briefly: Selectivity interaction (KinomeScan (DiscoverX)) EUB0001049a MYLK2. The settings on record: at 1 µM.
Assay [5] addresses Serine/threonine-protein kinase Nek4 (Homo sapiens) (UniProt P51957). Briefly: Selectivity interaction (KinomeScan (DiscoverX)) EUB0001049a NEK4. The settings on record: at 1 µM.
Assay [6] concerns the target Myosin-IIIa (Homo sapiens) (UniProt Q8NEV4). Briefly: Selectivity interaction (KinomeScan (DiscoverX)) EUB0001049a MYO3A. To be noted: at 1 µM.
Assay [7] has as its target Vascular endothelial growth factor receptor 3 (Homo sapiens, UniProt P35916). Kind of assay: Selectivity interaction (KinomeScan (DiscoverX)) EUB0000045b FLT4.
The target of assay [8] is Serine/threonine-protein kinase Chk2 (Homo sapiens) (UniProt O96017). Kind of assay: Selectivity interaction (KinomeScan (DiscoverX)) EUB0000045b CHEK2.
The target in assay [9] is Serine/threonine-protein kinase MARK2 (Homo sapiens) (UniProt Q7KZI7). Kind of assay: Selectivity interaction (KinomeScan (DiscoverX)) EUB0000045b MARK2.
The target of assay [10] is Mitogen-activated protein kinase kinase kinase 1 (Homo sapiens, UniProt Q13233). Kind of assay: Selectivity interaction (KinomeScan (DiscoverX)) EUB0000666a MAP3K1. The settings on record: at 10 µM.
The target of assay [11] is Non-receptor tyrosine-protein kinase TYK2 (Homo sapiens, UniProt P29597). Briefly: Selectivity interaction (KinomeScan (DiscoverX)) EUB0000607a TYK2. The settings on record: at 10 µM.
In assay [12] the target is eIF-2-alpha kinase GCN2 (Homo sapiens) (UniProt Q9P2K8). Kind of assay: Selectivity interaction (ActivX KiNativ screen (kinase selectivity in THP-1 cell lysates)) EUB0000639a EIF2AK4. In kind it is subcellular. To be noted: lysate, at 1 µM.
Assay [13] concerns the target Tyrosine-protein kinase BTK (Homo sapiens, UniProt Q06187). Kind of assay: Selectivity interaction (ActivX KiNativ screen (kinase selectivity in THP-1 cell lysates)) EUB0000639a BTK. Format: subcellular. The settings on record: lysate, at 5 µM.
Assay [14] concerns the target Serine/threonine-protein kinase MARK2 (Homo sapiens) (UniProt Q7KZI7). Kind of assay: Selectivity interaction (ActivX KiNativ screen (kinase selectivity in THP-1 cell lysates)) EUB0000639a MARK2. Format: subcellular. To be noted: lysate, at 0.2 µM.
Assay [15] concerns the target Mitogen-activated protein kinase 9 (Homo sapiens, UniProt P45984). The settings on record: at 10 µM.
The target in assay [16] is Calcium/calmodulin-dependent protein kinase kinase 1 (Homo sapiens) (UniProt Q8N5S9). Briefly: Selectivity interaction (KinomeScan (DiscoverX)) EUB0000595a CAMKK1. The settings on record: at 10 µM.
Assay [17] deals with Serine/threonine-protein kinase VRK2 (Homo sapiens) (UniProt Q86Y07). Kind of assay: Selectivity interaction (KinomeScan (DiscoverX)) EUB0000595a VRK2. The settings on record: at 10 µM.
The target in assay [18] is T1, Dual serine/threonine and tyrosine protein kinase (Homo sapiens) (UniProt Q6XUX3).
T1 sequence (whole entry): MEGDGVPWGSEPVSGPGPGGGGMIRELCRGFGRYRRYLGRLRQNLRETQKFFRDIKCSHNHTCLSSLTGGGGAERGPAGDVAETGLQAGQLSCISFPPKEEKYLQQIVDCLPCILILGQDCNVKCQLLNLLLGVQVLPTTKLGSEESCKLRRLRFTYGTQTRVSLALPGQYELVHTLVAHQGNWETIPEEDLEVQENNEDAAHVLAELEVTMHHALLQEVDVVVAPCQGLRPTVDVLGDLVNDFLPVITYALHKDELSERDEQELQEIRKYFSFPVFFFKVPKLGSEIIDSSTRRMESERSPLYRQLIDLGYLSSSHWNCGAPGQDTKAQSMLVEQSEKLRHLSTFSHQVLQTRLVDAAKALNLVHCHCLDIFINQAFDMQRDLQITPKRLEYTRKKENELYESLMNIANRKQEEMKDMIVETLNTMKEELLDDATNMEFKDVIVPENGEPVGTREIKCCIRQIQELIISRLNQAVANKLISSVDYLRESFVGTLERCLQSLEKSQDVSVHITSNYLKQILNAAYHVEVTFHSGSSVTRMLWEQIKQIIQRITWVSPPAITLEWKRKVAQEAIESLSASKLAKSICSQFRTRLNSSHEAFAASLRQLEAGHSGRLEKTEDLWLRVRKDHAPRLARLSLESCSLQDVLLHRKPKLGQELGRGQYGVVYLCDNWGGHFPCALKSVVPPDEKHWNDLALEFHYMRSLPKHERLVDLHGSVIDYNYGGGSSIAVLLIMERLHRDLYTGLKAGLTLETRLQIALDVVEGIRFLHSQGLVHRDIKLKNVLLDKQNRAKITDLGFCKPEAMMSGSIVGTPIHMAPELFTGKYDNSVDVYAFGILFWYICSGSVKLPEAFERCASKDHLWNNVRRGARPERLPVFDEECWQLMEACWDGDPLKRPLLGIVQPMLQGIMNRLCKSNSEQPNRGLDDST
Briefly: Selectivity interaction (KinomeScan (DiscoverX)) EUB0001619a DSTYK. To be noted: at 1 µM.

Assay [19] concerns the target Leucine-rich repeat serine/threonine-protein kinase 2 (Homo sapiens, UniProt Q5S007). The settings on record: at 1 µM.
Assay [20] has as its target Activin receptor type-2B (Homo sapiens) (UniProt Q13705). Kind of assay: Selectivity interaction (KinomeScan (DiscoverX)) EUB0000618a ACVR2B. To be noted: at 10 µM.
Assay [21] addresses Calcium/calmodulin-dependent protein kinase kinase 2 (Homo sapiens) (UniProt Q96RR4). Briefly: Selectivity interaction (KinomeScan (DiscoverX)) EUB0000618a CAMKK2. To be noted: at 10 µM.
Assay [22] deals with cAMP-dependent protein kinase catalytic subunit beta (Homo sapiens) (UniProt P22694). Kind of assay: Selectivity interaction (KinomeScan (DiscoverX)) EUB0000618a PRKACB. The settings on record: at 10 µM.

SMILES strings stand for the structures.

Chain of Serine/threonine-protein kinase MARK2 (Homo sapiens) (Q7KZI7 whole entry): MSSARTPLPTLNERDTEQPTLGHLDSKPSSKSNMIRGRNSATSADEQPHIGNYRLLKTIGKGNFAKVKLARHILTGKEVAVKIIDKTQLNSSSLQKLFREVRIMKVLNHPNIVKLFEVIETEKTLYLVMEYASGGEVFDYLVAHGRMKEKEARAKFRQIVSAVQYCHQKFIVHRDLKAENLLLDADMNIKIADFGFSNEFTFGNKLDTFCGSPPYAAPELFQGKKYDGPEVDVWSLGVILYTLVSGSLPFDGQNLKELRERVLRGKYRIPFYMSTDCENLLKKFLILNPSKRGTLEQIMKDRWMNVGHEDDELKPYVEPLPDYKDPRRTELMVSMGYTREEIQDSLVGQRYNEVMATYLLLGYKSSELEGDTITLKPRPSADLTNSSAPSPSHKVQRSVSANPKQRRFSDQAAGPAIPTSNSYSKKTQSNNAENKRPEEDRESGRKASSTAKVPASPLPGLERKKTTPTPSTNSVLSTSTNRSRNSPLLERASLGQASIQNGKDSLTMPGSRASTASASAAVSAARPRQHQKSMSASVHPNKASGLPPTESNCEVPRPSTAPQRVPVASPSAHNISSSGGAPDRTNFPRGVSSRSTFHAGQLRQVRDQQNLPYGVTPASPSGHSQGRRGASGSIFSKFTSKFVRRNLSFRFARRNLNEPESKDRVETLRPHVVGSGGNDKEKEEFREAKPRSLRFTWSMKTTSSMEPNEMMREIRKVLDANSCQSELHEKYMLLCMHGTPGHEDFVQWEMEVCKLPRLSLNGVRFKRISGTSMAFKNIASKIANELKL
Chain of Serine/threonine-protein kinase Chk2 (Homo sapiens) (O96017 whole entry): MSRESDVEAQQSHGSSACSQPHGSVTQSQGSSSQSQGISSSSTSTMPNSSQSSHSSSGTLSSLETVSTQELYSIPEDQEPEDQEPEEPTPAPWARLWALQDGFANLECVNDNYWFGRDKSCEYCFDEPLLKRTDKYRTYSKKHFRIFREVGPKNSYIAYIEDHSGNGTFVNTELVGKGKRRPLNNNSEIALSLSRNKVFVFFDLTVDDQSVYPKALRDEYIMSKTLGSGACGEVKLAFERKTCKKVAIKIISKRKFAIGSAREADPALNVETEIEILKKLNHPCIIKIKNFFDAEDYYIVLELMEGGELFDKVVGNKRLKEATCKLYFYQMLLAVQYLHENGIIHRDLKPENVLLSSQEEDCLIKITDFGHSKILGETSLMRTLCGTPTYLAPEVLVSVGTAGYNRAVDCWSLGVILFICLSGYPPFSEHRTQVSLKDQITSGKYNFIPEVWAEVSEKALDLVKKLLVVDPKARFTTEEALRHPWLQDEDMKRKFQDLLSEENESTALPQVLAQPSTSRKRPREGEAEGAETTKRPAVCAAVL
Chain of Vascular endothelial growth factor receptor 3 (P35916 whole entry): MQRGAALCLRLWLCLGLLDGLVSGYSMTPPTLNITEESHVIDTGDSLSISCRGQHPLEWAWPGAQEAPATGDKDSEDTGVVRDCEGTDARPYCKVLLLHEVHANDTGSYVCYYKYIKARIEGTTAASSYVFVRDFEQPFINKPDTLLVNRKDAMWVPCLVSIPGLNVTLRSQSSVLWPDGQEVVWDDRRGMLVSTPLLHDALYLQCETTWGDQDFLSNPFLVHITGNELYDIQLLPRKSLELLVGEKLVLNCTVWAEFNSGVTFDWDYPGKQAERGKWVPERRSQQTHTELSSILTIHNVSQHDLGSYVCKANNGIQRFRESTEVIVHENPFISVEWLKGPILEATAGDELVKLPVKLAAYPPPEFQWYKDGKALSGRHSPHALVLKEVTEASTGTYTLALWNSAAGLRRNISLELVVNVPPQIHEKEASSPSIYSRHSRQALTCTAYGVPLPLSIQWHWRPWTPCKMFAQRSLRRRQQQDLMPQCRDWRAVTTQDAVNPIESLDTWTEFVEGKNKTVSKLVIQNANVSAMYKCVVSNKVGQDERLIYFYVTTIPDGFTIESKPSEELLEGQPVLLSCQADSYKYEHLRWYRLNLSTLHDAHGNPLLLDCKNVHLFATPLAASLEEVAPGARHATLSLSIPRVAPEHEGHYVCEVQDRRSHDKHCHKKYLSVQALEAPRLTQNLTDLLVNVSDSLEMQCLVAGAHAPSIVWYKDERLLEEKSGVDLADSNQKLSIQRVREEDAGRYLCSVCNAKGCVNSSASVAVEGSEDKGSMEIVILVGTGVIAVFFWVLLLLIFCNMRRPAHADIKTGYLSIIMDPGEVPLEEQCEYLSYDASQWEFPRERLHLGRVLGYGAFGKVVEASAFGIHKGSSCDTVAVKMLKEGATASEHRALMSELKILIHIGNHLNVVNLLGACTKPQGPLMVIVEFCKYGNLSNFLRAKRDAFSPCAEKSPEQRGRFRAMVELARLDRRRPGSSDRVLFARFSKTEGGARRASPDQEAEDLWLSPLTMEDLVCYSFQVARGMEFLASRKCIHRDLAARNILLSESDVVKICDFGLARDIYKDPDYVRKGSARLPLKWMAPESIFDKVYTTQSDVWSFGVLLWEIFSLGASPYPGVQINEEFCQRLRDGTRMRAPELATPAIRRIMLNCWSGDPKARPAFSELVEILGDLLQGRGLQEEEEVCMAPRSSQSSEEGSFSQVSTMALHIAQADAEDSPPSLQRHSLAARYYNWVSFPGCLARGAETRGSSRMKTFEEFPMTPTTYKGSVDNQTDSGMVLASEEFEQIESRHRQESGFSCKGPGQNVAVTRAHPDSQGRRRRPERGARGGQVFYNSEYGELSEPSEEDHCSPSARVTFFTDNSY
Chain of Tyrosine-protein kinase BTK (Q06187 whole entry): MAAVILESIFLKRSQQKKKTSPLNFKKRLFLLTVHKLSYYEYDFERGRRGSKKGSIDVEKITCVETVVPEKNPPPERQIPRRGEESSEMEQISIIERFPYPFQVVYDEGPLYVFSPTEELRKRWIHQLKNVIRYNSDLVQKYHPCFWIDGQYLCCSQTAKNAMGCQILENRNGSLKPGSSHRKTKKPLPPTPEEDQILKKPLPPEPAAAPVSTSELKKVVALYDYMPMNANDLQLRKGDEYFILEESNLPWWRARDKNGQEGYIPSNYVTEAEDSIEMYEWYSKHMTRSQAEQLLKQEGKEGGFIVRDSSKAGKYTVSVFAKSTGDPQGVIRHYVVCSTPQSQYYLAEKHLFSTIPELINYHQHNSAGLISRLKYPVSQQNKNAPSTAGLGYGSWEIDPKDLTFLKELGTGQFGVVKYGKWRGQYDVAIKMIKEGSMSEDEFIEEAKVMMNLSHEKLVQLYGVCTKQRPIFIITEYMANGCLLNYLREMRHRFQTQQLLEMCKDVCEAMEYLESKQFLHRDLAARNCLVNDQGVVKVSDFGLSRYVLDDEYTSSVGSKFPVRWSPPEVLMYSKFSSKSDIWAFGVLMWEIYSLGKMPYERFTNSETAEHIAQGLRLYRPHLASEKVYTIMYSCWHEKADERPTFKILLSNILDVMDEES
Chain of Serine/threonine-protein kinase VRK2 (Homo sapiens) (Q86Y07 whole entry): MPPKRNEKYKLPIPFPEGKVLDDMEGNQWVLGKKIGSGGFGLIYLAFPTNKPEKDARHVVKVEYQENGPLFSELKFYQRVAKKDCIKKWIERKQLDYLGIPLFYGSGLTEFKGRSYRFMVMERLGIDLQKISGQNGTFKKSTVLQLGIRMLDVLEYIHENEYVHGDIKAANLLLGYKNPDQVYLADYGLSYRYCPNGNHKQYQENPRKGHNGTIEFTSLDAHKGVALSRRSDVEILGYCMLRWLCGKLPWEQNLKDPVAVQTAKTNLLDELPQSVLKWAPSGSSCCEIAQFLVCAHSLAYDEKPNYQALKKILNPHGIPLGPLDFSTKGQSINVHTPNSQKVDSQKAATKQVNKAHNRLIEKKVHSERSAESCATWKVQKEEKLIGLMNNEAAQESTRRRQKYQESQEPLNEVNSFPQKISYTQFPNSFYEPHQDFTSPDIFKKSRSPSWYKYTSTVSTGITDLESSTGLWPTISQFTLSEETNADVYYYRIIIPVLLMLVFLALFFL
Chain of Myosin light chain kinase 2, skeletal/cardiac muscle (Homo sapiens) (Q9H1R3 whole entry): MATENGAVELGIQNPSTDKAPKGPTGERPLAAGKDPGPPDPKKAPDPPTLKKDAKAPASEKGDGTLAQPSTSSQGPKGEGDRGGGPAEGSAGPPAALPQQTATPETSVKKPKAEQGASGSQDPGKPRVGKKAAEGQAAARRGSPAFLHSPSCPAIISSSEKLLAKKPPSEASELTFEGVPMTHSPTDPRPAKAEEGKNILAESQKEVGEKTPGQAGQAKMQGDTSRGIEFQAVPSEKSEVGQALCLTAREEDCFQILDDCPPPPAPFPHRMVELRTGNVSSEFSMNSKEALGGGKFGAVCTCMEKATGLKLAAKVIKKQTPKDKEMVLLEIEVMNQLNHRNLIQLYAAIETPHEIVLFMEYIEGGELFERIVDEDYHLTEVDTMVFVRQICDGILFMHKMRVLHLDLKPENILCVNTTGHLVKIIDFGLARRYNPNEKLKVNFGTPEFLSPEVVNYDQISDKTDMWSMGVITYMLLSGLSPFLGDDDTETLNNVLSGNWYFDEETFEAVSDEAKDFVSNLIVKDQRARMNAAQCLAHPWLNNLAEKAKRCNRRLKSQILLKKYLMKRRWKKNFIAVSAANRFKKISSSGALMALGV
Chain of Mitogen-activated protein kinase 9 (P45984 whole entry, looked up): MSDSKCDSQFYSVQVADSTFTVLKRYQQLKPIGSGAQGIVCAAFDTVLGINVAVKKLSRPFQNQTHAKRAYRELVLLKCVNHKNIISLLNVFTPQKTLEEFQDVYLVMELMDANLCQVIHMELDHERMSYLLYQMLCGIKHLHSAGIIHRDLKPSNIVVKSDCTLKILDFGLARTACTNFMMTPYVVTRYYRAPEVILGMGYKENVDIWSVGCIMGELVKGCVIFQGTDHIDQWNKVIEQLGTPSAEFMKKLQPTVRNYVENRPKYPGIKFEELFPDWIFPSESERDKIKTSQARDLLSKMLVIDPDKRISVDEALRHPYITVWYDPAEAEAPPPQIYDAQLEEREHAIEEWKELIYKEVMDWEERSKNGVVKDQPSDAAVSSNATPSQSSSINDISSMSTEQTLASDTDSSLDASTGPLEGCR

With `CCN(CC)CCCCNc1ncc2cc(-c3cc(OC)cc(OC)c3)c(NC(=O)NC(C)(C)C)nc2n1`, the % of control in assay [1] was found to be 100%; in assay [2], 21%.

`CC(=O)Nc1cccc(-n2c(=O)n(C3CC3)c(=O)c3c(Nc4ccc(I)cc4F)n(C)c(=O)c(C)c32)c1` yielded a % of control in [3] of 74%.

On to `COc1cc(Nc2nc(C)cc(-c3cnn4nc(OC)ccc34)n2)cc(C(F)(F)F)c1`, for which the % of control in [4] is 100%; in [5] it was 90%; in assay [6], 87%.

Take `C=CC(=O)Nc1cc(-n2c(=O)ccc3cnc4ccc(-c5ccc(NS(C)(=O)=O)cc5)cc4c32)ccc1C`: the % of control turned out to be 72% in [7] (at 1 µM); 100% in assay [7] (at 10 µM); 100% in assay [8] (at 1 µM); 100% in assay [8] (at 10 µM); 94% in assay [9] (at 1 µM); 100% in [9] (at 10 µM).

With `O=C(NOC[C@H](O)CO)c1ccc(F)c(F)c1Nc1ccc(I)cc1F`, in assay [10], the % of control worked out at 54%.

In the case of `CNC(=O)Nc1ccc(-c2nc(N3CC4CCC(C3)O4)c3cnn(C4CCC5(CC4)OCCO5)c3n2)cc1`, the % of control in assay [11] was 100%.

Consider `CC[C@@H]1[C@H](F)C(=O)N[C@@H]1COc1nccc2cc(C(N)=O)c(OC)cc12` [ZIMLOVISERTIB], for which the % of inhibition was 3.6% in assay [12], -7% in [13] and 8.4% in assay [14].

For the compound `COCC(=O)NC/C=C/c1ccc2ncnc(Nc3ccc(Oc4ccc(C)nc4)c(C)c3)c2c1` [CP-724714], the % of control in assay [15] was determined as 53%; in assay [16], 96%; in assay [17] it was 100%.

`N#Cc1cccc(-c2c[nH]c3ncnc(N4CCOCC4)c23)c1`: the % of control came to 91% in assay [18] and 43% in [19].

Regarding `O[C@H]1CC[C@H](Nc2ncc3nc(Nc4c(F)cc(F)cc4F)n([C@H]4CCOC4)c3n2)CC1`, the % of control in assay [20] was 100%; in assay [21], 94%; in [22], 100%.
